We go through four compounds from patent US20250368687A1, “SHORT SYNTHETIC PEPTIDES AND USES THEREOF IN THE TREATMENT OF ENTEROVIRUS INFECTION” (CITY UNIVERSITY OF HONG KONG, priority 2024, published 2025).

One data set has as its system p38 MAPK. Particulars: background statement; cited from earlier work.
Data set [1] deals with 2Apro-induced relocalization of Hsp27 and hnRNP A1 in RD cells. As to the kind of experiment: Immunofluorescence colocalization assay of 2Apro-induced relocalization of Hsp27 and hnRNP A1. It is filed as cell-based. The settings on record: 25 μM for 2 hours, transfected with 2Apro for 24 hours. As for the experimental part: FIGS. 9A-9B Peptide S78 blocks the 2A^pro-induced relocalization of Hsp27 and hnRNP A1. RD cells on the coverslips were treated with peptides (S78, S78A, and S82A) at the concentration of 25 μM for 2 hours, and then transfected with 2A^pro for 24 hours. The cells were fixed and stained with anti-Hsp27and anti-hnRNPAI, followed by Alexa Fluor 488-conjugated anti-rabbit antibody and Alexa Fluor 594-conjugated anti-mouse antibody. The nuclei were stained with Hoechst. The images were captured by Nikon A1HD25 Confocal Microscope. The JACoP-plugin of the extended ImageJ version Fiji was used to compute the M1 colocalization coefficient, in which (FIG. 9A) is M1 colocalization coefficient for the fraction of Hsp27 in Hoechst and (FIG. 9B) is the M1 colocalization coefficient for the fraction of hnRNP A1 in Hoechst. Statistical analyses were carried out using Student's t-test. *: p<0.05, **: p<0.01, ***: p<0.001. Data are expressed as mean ±SD.
The cells on coverslips were infected with EV-A71 at the multiplicity of infection (MOI) of 40 for 6 hrs to assure the high efficiency of viral infection. Then the cells were fixed by 4% paraformaldehyde for 20 min, permeabilized by 0.5% Triton X-100 for 15 min, blocked with 5% BSA for 2 hrs, and stained by incubation with anti-Hsp27 (GTX101145) and anti-hnRNP A1 (sc-32301) antibody, then with Alexa Fluor 488 conjugated anti-rabbit antibody and Alexa Fluor 594 conjugated anti-mouse antibody respectively. After washing four times with 0.2% Triton X-100, the nuclei were stained with DAPI or Hoechst for 5 min. The images were captured by a Nikon A1HD25 High speed and Large Field of View Confocal Microscope. Colocalization analysis was conducted using the JACoP-plugin of the extended ImageJ version Fiji. The M1 colocalization coefficient was computed to illustrate the colocalization levels of Hsp27 and hnRNP A1 overlapped with Hoechst.

The test system of a further data set is EV-A71. The data set is described as follows: Virus titration (TCID50). The class given is cell-based. Particulars: TCID50, RD cells (FIG. 10K). The protocol: FIGS. 10A-10K. Peptide S78 inhibited EV-A71 replication and propagation. (FIG. 10A) RD cells were pre-treated with peptides S78 or for 2 hours and infected with EV-A71 at the MOI of 10 for 6 hours. Cell lysates were collected for western blot assay. Hsp27 phosphorylation on Ser 15, 78, 82 were detected by specific antibodies. β-Actin were detected as internal control. (FIG. 10B) Densitometric analysis of FIG. 9A. (FIG. 10C) HEK 293T cells were pre-treated with peptides S78 or S78A at the concentration of 25 μM for 2 hours and then co-transfected with Hsp27-WT plasmid (800 ng), pIRES reporter plasmid (200 ng) and 2A^pro-expressing plasmid or 2AC110A-expressing plasmid (200 ng) for 24 h, then the luciferase activity was measured. (FIG. 10D-10E) RD cells were treated with peptides S78 or S78A and then infected with EV-A71. EV-A71 VP1 were detected. (FIG. 10F) RD cells were treated with peptides and then infected with EV-A71 at the MOI of 1 for 12 hours. The EV-A71-induced CPE was captured. (FIG. 10G-10H) Intracellular viral RNA was extracted and quantified by qPCR. (FIG. 10I) Densitometric analysis FIG. 9D-E. (FIG. 10J) RD cells were treated with peptides S78 or and then infected with EV-A71 at the MOI of 1 for 12 hours. Extracellular viral RNA was extracted and quantified by qPCR. (FIG. 10K) Viral titration was calculated by TCID50. […] Data are expressed as mean ±SD.
FIGS. 11A-11G Inhibition of EV-A71 Protein Translation and Viral Reproduction by peptide S82A. (FIG. 11A) HEK 293T cells were pre-treated with peptides NC, S78, S78A, S82A, or S78-3A at the concentration of 25 μM for 2 hours and then co-transfected with Hsp27-WT plasmid (800 ng), pIRES reporter plasmid (200 ng) and 2A^pro-expressing plasmid for 24 h, then the luciferase activity was measured. […] Intracellular viral RNA was extracted and quantified by qPCR. […] EV-A71 VP1 were detected. β-Actin was detected as an internal control. (FIG. 11F) Densitometric analysis of the EV-A71 VP1 level in FIG. S7C-E was quantified and normalized with β-Actin using ImageJ. […] Viral titration was calculated. […] Data are expressed as mean ±SD. […]

The next data set deals with RD cells. The data set is described as follows: CCK-8 assay. It is filed as cell-based. The settings on record: data not shown. As for the experimental part:
RD cells were seeded in 96-well cell plates (1×10^4/well) and placed in the 5% CO2 incubator for 1 day. Then the cells were treated with peptides for 2 days. 90 μl medium and 10 μl of CCK-8 (BioSharp, BS350B) was added to each well of the 96-well plate, which were incubated at 37° C. for 1 h. A microplate reader (BioTek, Synergy H1) was used to measure the OD value of each well at 450 nm.

Regarding `C[S+]([O-])c1ccc(-c2nc(-c3ccncc3)c(-c3ccc(F)cc3)[nH]2)cc1` (stereo not shown) [SB203580, reference compound], in the data set on p38 MAPK, the “secretion of inflammatory factors (such as IL-6, IL-10, and TNF-α)” value is on record as “inhibited”; the viral replication result was “reduced”.

With Ac-RKKRRQRRRAYSRALARQLSS-NH2 [S78A], the “2Apro-induced relocalization of Hsp27 and hnRNP A1” value in data set [1] is recorded as “still showed a certain cellular redistribution”. Moreover, in the data set on EV-A71, the “decrease of viral titer” value came to 50 folds.

On to Ac-RKKRRQRRRAYSRALSRQLSS-NH2 [S78], for which the “2Apro-induced relocalization of Hsp27 and hnRNP A1” value in data set [1] is on record as “almost completely blocked”. Moreover, the “decrease of viral titer” value in the data set with EV-A71 is 450 folds.

“Ac-RKKRRQRRRYSREANQPKPSPKRESGEE-NH2 [NC, reference compound]”: in the data set on RD cells, the “CC50 (in words)” value is on record as “high”.
